From ChEMBL document CHEMBL3784981, “Anti-inflammatory, analgesic and antioxidant activities of novel kyotorphin-nitroxide hybrid molecules” (Bioorg Med Chem Lett, 2016)
The source made the active and inactive calls.

Columns and labels:
Mus musculus [1] = assay: Analgesic activity in ICR mouse assessed as pain threshold at 0.1 umol/kg administered through oral gavage after 60 mins by tail flick method; assay type: functional
Mus musculus [2] = assay: Analgesic activity in ICR mouse assessed as pain threshold at 0.1 umol/kg administered through oral gavage after 120 mins by tail flick method; assay type: functional
[3] = Antioxidant activity in rat PC12 cells assessed as H2O2 radical scavenging activity measured as cell survival preincubated with compound for 1 hr measured after 14 hrs by MTT assay; assay type: functional, cell-based; conditions: pc-12
[4] = Antioxidant activity in sodium nitroprusside-stimulated rat PC12 cells assessed as NO radical scavenging activity measured as cell survival preincubated with compound for 1 hr followed by addition of sodium nitroprusside for 2 measured after 14 hrs by MTT assay; assay type: functional, cell-based; conditions: pc-12
Mus musculus [5] = assay: Analgesic activity in ICR mouse assessed as pain threshold at 0.1 umol/kg administered through oral gavage after 150 mins by tail flick method; assay type: functional
Mus musculus [6] = assay: Analgesic activity in ICR mouse assessed as pain threshold at 0.1 umol/kg administered through oral gavage after 180 mins by tail flick method; assay type: functional
Mus musculus [7] = assay: Antiinflammatory activity in ICR mouse assessed as inhibition of xylene-induced ear edema at 0.1 umol/kg, po administered 30 mins prior to xylene challenge measured after 2hrs; assay type: functional; conditions: for inhibition in vivo at 0.1 µmol/kg: Mus musculus, ICR, Ear, po
[8] = Antioxidant activity in H2O2/Fe(II)-stimulated rat PC12 cells assessed as OH radical scavenging activity measured by cell survival preincubated with compound for 1 hr measured after 14 hrs by MTT assay; assay type: functional, cell-based; conditions: pc-12
Mus musculus [9] = assay: Analgesic activity in ICR mouse assessed as pain threshold at 0.1 umol/kg administered through oral gavage after 90 mins by tail flick method; assay type: functional
Mus musculus [10] = assay: Analgesic activity in ICR mouse assessed as pain threshold at 0.1 umol/kg administered through oral gavage after 30 mins by tail flick method; assay type: functional
Mus musculus [11] = assay: Analgesic activity in ICR mouse assessed as pain threshold at 0.055 umol/kg administered through oral gavage after 150 mins by tail flick method; assay type: functional
Mus musculus [12] = assay: Analgesic activity in ICR mouse assessed as pain threshold at 0.05 umol/kg administered through oral gavage after 90 mins by tail flick method; assay type: functional
Mus musculus [13] = assay: Analgesic activity in ICR mouse assessed as pain threshold at 0.15 umol/kg administered through oral gavage after 180 mins by tail flick method; assay type: functional
Mus musculus [14] = assay: Antiinflammatory activity in ICR mouse assessed as inhibition of xylene-induced ear edema at 0.05 umol/kg, po administered 30 mins prior to xylene challenge measured after 2hrs; assay type: functional
Mus musculus [15] = assay: Analgesic activity in ICR mouse assessed as pain threshold at 0.15 umol/kg administered through oral gavage after 120 mins by tail flick method; assay type: functional
Mus musculus [16] = assay: Analgesic activity in ICR mouse assessed as pain threshold at 0.15 umol/kg administered through oral gavage after 30 mins by tail flick method; assay type: functional
Mus musculus [17] = assay: Antiinflammatory activity in ICR mouse assessed as inhibition of xylene-induced ear edema at 0.15 umol/kg, po administered 30 mins prior to xylene challenge measured after 2hrs; assay type: functional
HUVEC [18] = assay: Inhibition of simulated ischemia/reperfusion-induced ROS production in human HUVEC cells at 30 ug/ml after 2 hrs by Hoechst 33342 dye based fluorescence assay; assay type: functional, cell-based
Mus musculus [19] = assay: Analgesic activity in ICR mouse assessed as pain threshold at 0.15 umol/kg administered through oral gavage after 60 mins by tail flick method; assay type: functional
Mus musculus [20] = assay: Analgesic activity in ICR mouse assessed as pain threshold at 0.055 umol/kg administered through oral gavage after 180 mins by tail flick method; assay type: functional
Mus musculus [21] = assay: Analgesic activity in ICR mouse assessed as pain threshold at 0.05 umol/kg administered through oral gavage after 60 mins by tail flick method; assay type: functional
HUVEC [22] = assay: Inhibition of simulated ischemia/reperfusion-induced human HUVEC cells death assessed as decrease in fragmented mitochondria at 30 ug/ml after 2 hrs by Hoechst 33342 dye based fluorescence assay; assay type: functional, cell-based
HUVEC [23] = assay: Inhibition of simulated ischemia/reperfusion-induced human HUVEC cells death assessed as increase in tubular mitochondria levels at 30 ug/ml after 2 hrs by Hoechst 33342 dye based fluorescence assay (reference value: 11.3 +/- 2.1 %); assay type: functional; parameters: scale not given: the % may be the effect or the level left
Mus musculus [24] = assay: Analgesic activity in ICR mouse assessed as pain threshold at 0.05 umol/kg administered through oral gavage after 30 mins by tail flick method; assay type: functional
HUVEC [25] = assay: Inhibition of simulated ischemia/reperfusion-induced cytochrome C release in human HUVEC cells at 30 ug/ml after 2 hrs by fluorescence assay (reference value: 75.3 +/- 5.2 %); assay type: functional; parameters: scale not given: the % may be the effect or the level left
Mus musculus [26] = assay: Analgesic activity in ICR mouse assessed as pain threshold at 0.15 umol/kg administered through oral gavage after 150 mins by tail flick method; assay type: functional
Mus musculus [27] = assay: Analgesic activity in ICR mouse assessed as pain threshold at 0.05 umol/kg administered through oral gavage after 120 mins by tail flick method; assay type: functional
Mus musculus [28] = assay: Analgesic activity in ICR mouse assessed as pain threshold at 0.15 umol/kg administered through oral gavage after 90 mins by tail flick method; assay type: functional
Mus musculus [29] = assay: Analgesic activity in ICR mouse assessed as pain threshold at 1 umol/kg administered through oral gavage after 90 mins by tail flick method; assay type: functional
Mus musculus [30] = assay: Analgesic activity in ICR mouse assessed as pain threshold at 1 umol/kg administered through oral gavage after 30 mins by tail flick method; assay type: functional
Mus musculus [31] = assay: Analgesic activity in ICR mouse assessed as pain threshold at 1 umol/kg administered through oral gavage after 150 mins by tail flick method; assay type: functional
Mus musculus [32] = assay: Analgesic activity in ICR mouse assessed as pain threshold at 1 umol/kg administered through oral gavage after 180 mins by tail flick method; assay type: functional
Mus musculus [33] = assay: Analgesic activity in ICR mouse assessed as pain threshold at 1 umol/kg administered through oral gavage after 60 mins by tail flick method; assay type: functional
Mus musculus [34] = assay: Analgesic activity in ICR mouse assessed as pain threshold at 1 umol/kg administered through oral gavage after 120 mins by tail flick method; assay type: functional
Mus musculus [35] = assay: Analgesic activity in ICR mouse assessed as pain threshold at 165 umol/kg administered through oral gavage after 30 mins by tail flick method; assay type: functional
Mus musculus [36] = assay: Analgesic activity in ICR mouse assessed as pain threshold at 165 umol/kg administered through oral gavage after 60 mins by tail flick method; assay type: functional
Mus musculus [37] = assay: Analgesic activity in ICR mouse assessed as pain threshold at 165 umol/kg administered through oral gavage after 120 mins by tail flick method; assay type: functional
Mus musculus [38] = assay: Analgesic activity in ICR mouse assessed as pain threshold at 165 umol/kg administered through oral gavage after 90 mins by tail flick method; assay type: functional
Mus musculus [39] = assay: Analgesic activity in ICR mouse assessed as pain threshold at 165 umol/kg administered through oral gavage after 150 mins by tail flick method; assay type: functional
Mus musculus [40] = assay: Analgesic activity in ICR mouse assessed as pain threshold at 165 umol/kg administered through oral gavage after 180 mins by tail flick method; assay type: functional

SMILES	Activity (Mus musculus [1])	Activity (Mus musculus [2])	EC50 [3]	EC50 [4]	Activity (Mus musculus [5])	Activity (Mus musculus [6])	inhibition (INH) (Mus musculus [7])	EC50 [8]	Activity (Mus musculus [9])	Activity (Mus musculus [10])	Activity (Mus musculus [11])	Activity (Mus musculus [12])	Activity (Mus musculus [13])	inhibition (INH) (Mus musculus [14])	Activity (Mus musculus [15])	Activity (Mus musculus [16])	inhibition (INH) (Mus musculus [17])	Activity (HUVEC [18])	Activity (Mus musculus [19])	Activity (Mus musculus [20])	further results
CC1(C)N([O])C(c2ccc(OCC(=O)N[C@@H](Cc3ccc(O)cc3)C(=O)N[C@@H](CCC(=O)O)C(=O)O)cc2)=[N+]([O-])C1(C)C	13.44%	13.58%	31.3 µM	8.1 µM	15.11%	14.22%	32.22%	22.7 µM	26.41%	11.1%	–	–	–	–	–	–	–	–	–	–	–
CC1(C)N([O])C(c2ccc(OCC(=O)NCCNC(=O)[C@H](Cc3ccc(O)cc3)NC(=O)[C@@H](N)CCCNC(=N)N)cc2)=[N+]([O-])C1(C)C	25.75%	48.17%	32.5 µM	19.5 µM	37.11%	23.15%	50.68%	33.9 µM	35.74%	15.28%	11.91%	13.57%	27.67%	21.21%	50.61%	17.89%	58.15%	Active	28.65%	9.14%	Activity (Mus musculus [21]): 10.35%; inhibition (HUVEC [22]): Active; Activity (HUVEC [23]): 41.5%; Activity (Mus musculus [24]): 7.48%; Activity (HUVEC [25]): 47.8%; Activity (Mus musculus [26]): 39.13%; Activity (Mus musculus [27]): 15.78%; Activity (Mus musculus [28]): 32.33%
CC1(C)N([O])C(c2ccc(OCC(=O)O)cc2)=[N+]([O-])C1(C)C	–	–	–	–	–	–	–	–	–	–	–	–	–	–	–	–	–	–	–	–	Activity (Mus musculus [29]): 20.97%; Activity (Mus musculus [30]): 9.1%; Activity (Mus musculus [31]): 21.11%; Activity (Mus musculus [32]): 13.05%; Activity (Mus musculus [33]): 12.31%; Activity (Mus musculus [34]): 23.18%; inhibition in vivo at 0.1 µmol/kg (Mus musculus [7]): 29.7%
CC1(C)N([O])C(c2ccc(OCC(=O)NCCCNC(=O)[C@H](Cc3ccc(O)cc3)NC(=O)[C@@H](N)CCCNC(=N)N)cc2)=[N+]([O-])C1(C)C	29.36%	60.32%	31.3 µM	8.1 µM	51.33%	22.01%	73.47%	22.7 µM	44.76%	16.3%	19.35%	18.37%	30.34%	37.33%	68.42%	20.17%	78.58%	Active	33.47%	16.28%	Activity (Mus musculus [21]): 12.31%; inhibition (HUVEC [22]): Active; Activity (HUVEC [23]): 55.7%; Activity (Mus musculus [24]): 8.16%; Activity (HUVEC [25]): 27.8%; Activity (Mus musculus [26]): 52.45%; Activity (Mus musculus [27]): 25.36%; Activity (Mus musculus [28]): 50.35%
CC(=O)Oc1ccccc1C(=O)O [ASPIRIN]	–	–	–	–	–	–	–	–	–	–	–	–	–	–	–	–	–	–	–	–	Activity (Mus musculus [35]): 33.21%; Activity (Mus musculus [36]): 66.32%; Activity (Mus musculus [37]): 25.21%; Activity (Mus musculus [38]): 53.2%; inhibition in vivo at 0.1 µmol/kg (Mus musculus [7]): 49.9%; Activity (Mus musculus [39]): 15.84%; Activity (Mus musculus [40]): 20.56%
CC1(C)N([O])C(c2ccc(OCC(=O)N[C@@H](Cc3ccc(O)cc3)C(=O)N[C@@H](CCCNC(=N)N)C(=O)O)cc2)=[N+]([O-])C1(C)C	18.66%	40.01%	31.3 µM	8.1 µM	34.14%	14.45%	40.86%	22.7 µM	31.45%	12.53%	–	–	–	–	–	–	–	–	–	–	–
